Tested on: PBMCs
Format: cell-based, human

| Substance | S.I. (stimulation index: mean spots per well containing polypeptide/mean spots per background wells) | number of subjects recognizing the peptide | IFNγ response to the VARV version of the polypeptide |
| --- | --- | --- | --- |
| DVLFRLENHAETLRAA | 0.7 |  |  |
| KADGDDNEETLKQRLT | 1 |  |  |
| CYIFHSDYQLFSDAKA | 1.1 |  |  |
| CYILHSDYQLFSDAKA [Polypeptide 6] | 3.5 | 3 subjects |  |
| GVIFLISVIVLVCSCN | 2.3 |  | detected |
| LYNKPLYEVNAIITLI | 1 |  |  |
| EVLFRLENHAETLRAA [Polypeptide 21] | 2.5 |  |  |
| 18 (GVIFLISVIVLVCSCDGVIFLISVIVLVCSCN) [compound 18] | 2.1 |  |  |
| DTFFRTSPMVIATTDI | 1.1 |  |  |
